Reference: US10329302B2, “Bicyclic-fused heteroaryl or aryl compounds” (Pfizer Inc., priority 2014, dated 2019)
Read-outs that look alike come from different tables or passages of the source.

Legend:
[1] = molecular target: human IRAK4 kinase domain (aa 154-460) (Homo sapiens (Human), UniProt Q9NWZ3); test: IRAK4 Enzymatic DELFIA Assay, Protocol B; format: biochemical; conditions: human IRAK4 kinase domain (aa 154-460), 0.6 mM ATP (KM); read-out: IRAK4 DELFIA Protocol B IC50
From the text: IRAK4 Enzymatic DELFIA Assay, Protocol B.

[2] = molecular target: human IRAK4 FL (Full Length) (Homo sapiens (Human), UniProt Q9NWZ3); test: IRAK4 Enzymatic DELFIA Assay, Protocol A; format: biochemical
[3] = system: R848-induced TNFα production by human peripheral blood mononuclear cells (PBMCs); test: R848 Induced TNFα in Human PBMC Assay; format: cell-based
[4] = human IRAK4 FL, 0.6 mM ATP (KM), read-out: IRAK4 DELFIA Protocol A IC50
[5] = Homo sapiens, PBMC, 3 h, read-out: R848-induced TNFa PBMC IC50 (nM)

human IRAK4 kinase domain (aa 154-460), sequence (Q9NWZ3 154-460): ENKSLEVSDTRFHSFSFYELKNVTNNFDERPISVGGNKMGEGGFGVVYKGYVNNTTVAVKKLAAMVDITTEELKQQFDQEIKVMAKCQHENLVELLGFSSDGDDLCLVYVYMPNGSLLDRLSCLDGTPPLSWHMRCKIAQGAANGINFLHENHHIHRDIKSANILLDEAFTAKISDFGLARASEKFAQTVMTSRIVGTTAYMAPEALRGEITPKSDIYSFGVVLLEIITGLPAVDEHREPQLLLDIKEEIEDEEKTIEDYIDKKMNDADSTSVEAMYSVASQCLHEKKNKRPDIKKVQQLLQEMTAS
human IRAK4 FL (Full Length), sequence (Q9NWZ3 whole entry): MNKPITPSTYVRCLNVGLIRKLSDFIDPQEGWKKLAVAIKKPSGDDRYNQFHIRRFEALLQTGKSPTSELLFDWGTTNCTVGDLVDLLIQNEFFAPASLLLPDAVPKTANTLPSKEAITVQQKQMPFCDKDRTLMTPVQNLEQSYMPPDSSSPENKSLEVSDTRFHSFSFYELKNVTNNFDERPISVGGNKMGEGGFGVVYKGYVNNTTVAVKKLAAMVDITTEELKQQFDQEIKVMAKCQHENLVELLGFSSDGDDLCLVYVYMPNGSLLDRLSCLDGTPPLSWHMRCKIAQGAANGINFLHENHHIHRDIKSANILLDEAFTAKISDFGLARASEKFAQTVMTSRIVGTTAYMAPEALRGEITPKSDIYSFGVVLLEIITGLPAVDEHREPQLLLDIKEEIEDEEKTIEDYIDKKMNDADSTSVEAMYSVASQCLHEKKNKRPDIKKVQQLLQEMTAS

Row | SMILES | IC50 [1] | IC50 [2, 4] | IC50 [3, 5] | also measured
1 | CC(C)Oc1cc2c(OC[C@@]34C[C@@H]3CN(C(=O)CC#N)C4)nccc2cc1C(N)=O [Example 77, 1-{[(1S,5S)-3-(cyanoacetyl)-3-azabicyclo[3.1.0]hex-1-yl]methoxy}-7-(propan-2-yloxy)isoquinoline-6-carboxamide] | 468 nM |  |  | 
2 | CC(C)Oc1cc2c(OCC3(F)CCN(C(=O)CC#N)CC3)ccnc2cc1C(N)=O [Example 95, 4-{[1-(cyanoacetyl)-4-fluoropiperidin-4-yl]methoxy}-6-(propan-2-yloxy)quinoline-7-carboxamide] | 3170 nM |  |  | 
3 | CC(C)Oc1cc2c(OCC3(C)COC3)ccnc2cc1C(N)=O [Example 12, 4-[(3-methyloxetan-3-yl)methoxy]-6-(propan-2-yloxy)quinoline-7-carboxamide] | 1040 nM |  |  | 
4 | CC(C)Oc1cc2c(OCC3COCO3)ccnc2cc1C(N)=O (centres unmarked) [Example 18, 4-(1,3-dioxolan-4-ylmethoxy)-6-(propan-2-yloxy)quinoline-7-carboxamide] | 507 nM |  |  | 
5 | COc1cc2c(OC[C@@H]3NC(=O)CC3(C)C)nccc2cc1C(N)=O [Example 222, 1-{[(2R)-3,3-dimethyl-5-oxopyrrolidin-2-yl]methoxy}-7-methoxyisoquinoline-6-carboxamide] | 1870 nM |  |  | 
6 | CC[C@H]1CN(C(=O)CC#N)C[C@@H]1COc1nccc2cc(C(N)=O)c(OC(C)C)cc12 [Example 80, 1-{[(3R,4R)-1-(cyanoacetyl)-4-ethylpyrrolidin-3-yl]methoxy}-7-(propan-2-yloxy)isoquinoline-6-carboxamide] | 333 nM |  |  | 
7 | CC(C)Oc1cc2c(OC[C@@H]3[C@H]4CN(C(=O)CC#N)C[C@@H]34)ccnc2cc1C(N)=O [Example 87, 4-{[(1R,5S,6r)-3-(cyanoacetyl)-3-azabicyclo[3.1.0]hex-6-yl]methoxy}-6-(propan-2-yloxy)quinoline-7-carboxamide] | 2620 nM |  |  | 
8 | CC(C)Oc1cc2c(OC[C@H]3COCCN3C(=O)CC#N)nccc2cc1C(N)=O [Example 64, 1-{[(3R)-4-(cyanoacetyl)morpholin-3-yl]methoxy}-7-(propan-2-yloxy)isoquinoline-6-carboxamide] | 641 nM |  |  | 
9 | CO[C@H]1CN(C(=O)CC#N)C[C@@H]1COc1ccnc2cc(C(N)=O)c(OC(C)C)cc12 [Example 96, 4-{[(3R,4R)-1-(cyanoacetyl)-4-methoxypyrrolidin-3-yl]methoxy}-6-(propan-2-yloxy)quinoline-7-carboxamide] | 301 nM |  |  | 
10 | CC(C)Oc1cc2c(OCC3CCC3)ccnc2cc1C(N)=O [Example 9, 4-(cyclobutylmethoxy)-6-(propan-2-yloxy)quinoline-7-carboxamide] | 598 nM |  |  | 
11 | CC(C)Oc1cc2c(OC[C@]34CNC[C@H]3C4)nccc2cc1C(N)=O [Example 40, 1-[(1S,5S)-3-azabicyclo[3.1.0]hex-1-ylmethoxy]-7-(propan-2-yloxy)isoquinoline-6-carboxamide] | 109 nM |  |  | 
12 | CC(C)Oc1cc2c(OC[C@H]3CN(C(=O)CC#N)CCO3)nccc2cc1C(N)=O [Example 78, 1-{[(2R)-4-(cyanoacetyl)morpholin-2-yl]methoxy}-7-(propan-2-yloxy)isoquinoline-6-carboxamide] | 4740 nM |  |  | 
13 | CC(C)Oc1cc2c(OC[C@H]3COCCN3)nccc2cc1C(N)=O [Example 158, 1-[(3R)-morpholin-3-ylmethoxy]-7-(propan-2-yloxy)isoquinoline-6-carboxamide] | 1440 nM |  |  | 
14 | CC(C)Oc1cc2c(OCC3CN(C)CCO3)nccc2cc1C(N)=O (centres unmarked) [Example 44, 1-[(4-methylmorpholin-2-yl)methoxy]-7-(propan-2-yloxy)isoquinoline-6-carboxamide] | 4260 nM |  |  | 
15 | CC(C)Oc1cc2c(OCC3CCCS(=O)(=O)N3)nccc2cc1C(N)=O (centres unmarked) [Example 27, 1-[(1,1-dioxido-1,2-thiazinan-3-yl)methoxy]-7-(propan-2-yloxy)isoquinoline-6-carboxamide] | 2480 nM |  |  | 
16 | CC(C)Oc1cc2c(OCC3(NC(=O)CC#N)CCCC3)nccc2cc1C(N)=O [Example 65, 1-({1-[(cyanoacetyl)amino]cyclopentyl}methoxy)-7-(propan-2-yloxy)isoquinoline-6-carboxamide] | 563 nM |  |  | 
17 | CC(C)Oc1cc2c(O[C@H]3CC[C@@H]4CN(C(=O)CC#N)C[C@@H]43)nccc2cc1C(N)=O [Example 79, 1-{[(3aR,4S,6aS)-2-(cyanoacetyl)octahydrocyclopenta[c]pyrrol-4-yl]oxy}-7-(propan-2-yloxy)isoquinoline-6-carboxamide] | 457 nM |  |  | 

Row | SMILES | IC50 [1] | IC50 [2, 4] | IC50 [3, 5] | also measured
18 | CC(C)Oc1cc2c(OCC3(C)CCN(C(=O)CC#N)C3)nccc2cc1C(N)=O (centres unmarked) [Example 82, 1-{[1-(cyanoacetyl)-3-methylpyrrolidin-3-yl]methoxy}-7-(propan-2-yloxy)isoquinoline-6-carboxamide] | 969 nM |  |  | 
19 | CCOc1cc2c(OC[C@H]3NC(=O)[C@@H](F)[C@H]3CC)nccc2cc1C(N)=O [Example 359, 7-ethoxy-1-{[(2S,3S,4S)-3-ethyl-4-fluoro-5-oxopyrrolidin-2-yl]methoxy}isoquinoline-6-carboxamide] |  | 0.4 nM | 3.9 nM | 
20 | COc1cc2c(OC[C@@H]3C[C@@H](OC)C(=O)N3)cccc2cc1C(N)=O [Example 232, 3-methoxy-5-{[(2S,4R)-4-methoxy-5-oxopyrrolidin-2-yl]methoxy}naphthalene-2-carboxamide] |  | 20 nM | 261 nM | 
21 | CC[C@@]1(F)C[C@@H](COc2nccc3cc(C(N)=O)c(OC(C)C)cc23)NC1=O [Example 132, 1-{[(2S,4R)-4-ethyl-4-fluoro-5-oxopyrrolidin-2-yl]methoxy}-7-(propan-2-yloxy)isoquinoline-6-carboxamide] |  | 188 nM | 1180 nM | 
22 | CC[C@@H]1[C@H](F)C(=O)N[C@@H]1COc1ccnc2cc(C(N)=O)c(OC)cc12 [Example 316, 4-{[(2S,3S,4S)-3-ethyl-4-fluoro-5-oxopyrrolidin-2-yl]methoxy}-6-methoxyquinoline-7-carboxamide] |  | 129 nM | 464 nM | 
23 | COc1cc2c(OC[C@@H]3C[C@](C)(F)C(=O)N3)ccnc2cc1C(N)=O [Example 268, 4-{[(2S,4S)-4-fluoro-4-methyl-5-oxopyrrolidin-2-yl]methoxy}-6-methoxyquinoline-7-carboxamide] |  | 1.4 nM | 175 nM | 
24 | COc1cc2c(OC[C@@H]3C[C@@H](CC#N)C(=O)N3)nccc2cc1C(N)=O [Example 225, 1-{[(2S,4S)-4-(cyanomethyl)-5-oxopyrrolidin-2-yl]methoxy}-7-methoxyisoquinoline-6-carboxamide] |  | 3.4 nM | 155 nM | 
25 | CC(C)Oc1cc2c(OC[C@H]3NC(=O)[C@H](F)[C@H]3C)nccc2cc1C(N)=O [Example 170, 1-{[(2S,3S,4R)-4-fluoro-3-methyl-5-oxopyrrolidin-2-yl]methoxy}-7-(propan-2-yloxy)isoquinoline-6-carboxamide] |  | 0.8 nM | 41 nM | 
26 | COc1c(C(N)=O)cc2ccnc(OC[C@H]3NC(=O)[C@@H]4[C@@H](C)[C@@H]43)c2c1F [Example 365, 8-fluoro-7-methoxy-1-{[(1S,2S,5R)-6-methyl-4-oxo-3-azabicyclo[3.1.0]hex-2-yl]methoxy}isoquinoline-6-carboxamide] |  | 187 nM | 724 nM | 
27 | CC[C@H]1[C@@H](COc2nccc3cc(C(N)=O)c(OC)cc23)NC(=O)[C@@H]1OC [Example 343, 1-{[(2S,3S,4R)-3-ethyl-4-methoxy-5-oxopyrrolidin-2-yl]methoxy}-7-methoxyisoquinoline-6-carboxamide] |  | 41 nM | 408 nM | 
28 | COc1cc2c(OC[C@H]3NC(=O)[C@]4(F)C[C@H]34)nccc2cc1C(N)=O [Example 317, 1-{[(1R,2S,5S)-5-fluoro-4-oxo-3-azabicyclo[3.1.0]hex-2-yl]methoxy}-7-methoxyisoquinoline-6-carboxamide] |  |  |  | IC50 [2]: 0.6 nM; IC50 ([3]; human PBMC, absence of serum, 3 hours, read-out: R848-induced TNFa PBMC IC50): 22 nM
29 | COc1cc2c(OC[C@H]3NC(=O)[C@@H](F)[C@H]3C)ccnc2cc1C(N)=O [Example 250, 4-{[(2S,3S,4S)-4-fluoro-3-methyl-5-oxopyrrolidin-2-yl]methoxy}-6-methoxyquinoline-7-carboxamide] |  | 0.6 nM | 144 nM | 
30 | COc1cc2c(OC[C@H]3NC(=O)[C@]4(F)C[C@H]34)ccnc2cc1C(N)=O [Example 325, 4-{[(1R,2S,5S)-5-fluoro-4-oxo-3-azabicyclo[3.1.0]hex-2-yl]methoxy}-6-methoxyquinoline-7-carboxamide] |  | 0.4 nM | 87 nM | 
31 | CC[C@H]1[C@@H](COc2nccc3cc(C(N)=O)c(OC)cc23)NC(=O)[C@@H]1N [Example 357, 1-{[(2S,3R,4R)-4-amino-3-ethyl-5-oxopyrrolidin-2-yl]methoxy}-7-methoxyisoquinoline-6-carboxamide] |  | 30 nM | 588 nM | 
32 | CC(C)Oc1cc2c(OC[C@@H]3C[C@@H](F)C(=O)N3)nccc2cc1C(N)=O [Example 144, 1-{[(2S,4R)-4-fluoro-5-oxopyrrolidin-2-yl]methoxy}-7-(propan-2-yloxy)isoquinoline-6-carboxamide] |  | 1.4 nM | 141 nM | 
33 | COc1cc2c(OC[C@H]3NC(=O)[C@H](F)[C@H]3C3CC3)nccc2cc1C(N)=O [Example 369, 1-{[(2S,3S,4R)-3-cyclopropyl-4-fluoro-5-oxopyrrolidin-2-yl]methoxy}-7-methoxyisoquinoline-6-carboxamide] |  | 3.7 nM | 45 nM | 
34 | COc1cc2c(OC[C@H]3C[C@@H](F)C(=O)N3)nccc2cc1C(N)=O [Example 275, 1-{[(2R,4R)-4-fluoro-5-oxopyrrolidin-2-yl]methoxy}-7-methoxyisoquinoline-6-carboxamide] |  | 119 nM | 5140 nM | 
